Data reported in US6770442B2, “Methods for modulating the solubility of synthetic polymers” (Boston Probes, Inc., priority 1998, dated 2004).

What was measured:
[1] = Solubility of labeled PNA oligomer in aqueous buffer
[2] = UV Tm analysis of unimolecular PNA hairpins (9 bp stem duplex); type: physicochemical; details: for cooperativity of sigmoidal melting transition (normalized absorbance vs. temperature): each probe at [1], FIG. 11
Protocol: The five Tm Samples of a dilution series of a particular unimolecular probe to be analyzed were simultaneously examined using a Cary 100 Bio UV-Visible Spectrophotometer (Varian Instruments) equipped with a 6×6 thermostatable multicell block running Win UV Bio application software package. To a 10×10 UV cell (Starna Cells, P/N 21-Q-10) was added a 7.2 mm stir bar and the 2.5 mL of each sample of the dilution series. The stirring accessory was used during all analysis. All samples were thermally denatured and reannealed prior to data collection by having the instrument rapidly ramp the temperature to a point above the melting temperature and then holding that temperature for 5-10 minutes before returning to the starting temperature. The temperature range over which data was collected was varied in response to the expected Tm which was roughly determined during the premelt and prereannealing step. Regardless of the temperature range, the temperature ramp rate for both melting “M” and reannealing “R” was always 0.5°C./min. The absorbance (260 nm, averaged over a 3 second collection) was plotted vs. the temperature of the multicell block.
After the Tm analysis was performed in Tm Buffer, to each cell was added 0.5 μL of 5M MgCl2 to thereby prepare a sample containing 1 mM MgCl2. The dilution effect was considered to be negligible. The Tm analysis was then performed again to determine whether the presence of MgCl2 had any; effect on the Tm of the unimolecular probe.
After the Tm analysis was performed in Tm Buffer and 1 mM MgCl2, to each cell was added 42 μL of saturated NaCl (approximately 6.11 M/L). The dilution effect was again considered to be negligible. The Tm analysis was then performed again to determine whether the presence of approximately 100 mM NaCl had any effect on the Tm of the unimolecular probe.

[3] = [1] approx. 7.5 μM, Buf, Mg & Na: Tm Buffer, 1 mM MgCl2 and 100 mM NaCl
[4] = [1] approx. 7.5 μM, Buf, Mg: Tm Buffer and 1 mM MgCl2
[5] = [2] approx. 3.75 μM, Buf, Mg & Na: Tm Buffer, 1 mM MgCl2 and 100 mM NaCl
[6] = [2] approx. 3.75 μM, Buf, Mg: Tm Buffer and 1 mM MgCl2
[7] = [2] approx. 3.75 μM, Buf: Tm Buffer
[8] = [3] approx. 1.87 μM, Buf, Mg & Na: Tm Buffer, 1 mM MgCl2 and 100 mM NaCl
[9] = [3] approx. 1.87 μM, Buf, Mg: Tm Buffer and 1 mM MgCl2
[10] = [3] approx. 1.87 μM, Buf: Tm Buffer
[11] = [4] approx. 0.94 μM, Buf, Mg & Na: Tm Buffer, 1 mM MgCl2 and 100 mM NaCl
[12] = [4] approx. 0.94 μM, Buf, Mg: Tm Buffer and 1 mM MgCl2
[13] = [4] approx. 0.94 μM, Buf: Tm Buffer
[14] = [5] approx. 0.468 μM, Buf, Mg & Na: Tm Buffer, 1 mM MgCl2 and 100 mM NaCl
[15] = [5] approx. 0.468 μM, Buf, Mg: Tm Buffer and 1 mM MgCl2
[16] = [5] approx. 0.468 μM, Buf: Tm Buffer

| Tm, melting M [2, 3] | Tm, reannealing R [2, 3] | Tm, melting M [2, 4] | Tm, reannealing R [2, 4] | Tm, melting M [2, 5] | Tm, melting M [2, 6] | Tm, reannealing R [2, 6] | Tm, melting M [2, 7] | Tm, reannealing R [2, 7] | Tm, melting M [2, 8] | Tm, melting M [2, 9] | Tm, reannealing R [2, 9] | Tm, melting M [2, 10] | Tm, reannealing R [2, 10] | Tm, melting M [2, 11] | Tm, reannealing R [2, 11] | Tm, melting M [2, 12] | Tm, melting M [2, 13] | Tm, reannealing R [2, 13] | Tm, melting M [2, 14] | Substance | further results |
| --- | --- | --- | --- | --- | --- | --- | --- | --- | --- | --- | --- | --- | --- | --- | --- | --- | --- | --- | --- | --- | --- |
| 82.6 °C | 81.8 °C | 81.6 °C | 81.0 °C | 82.6 °C | 81.6 °C | 81.5 °C | 81.6 °C | 81.4 °C | 82.6 °C | 82.0 °C | 81.5 °C | 82.1 °C | 81.5 °C | 82.5 °C | 82.5 °C | 82.0 °C | 82.0 °C | 81.5 °C | 83.0 °C | Flu-OEE-ATA-TAT-TGG-CTG-ATC-CAA-TAT-AT-EE-K(dabcyl)-NH2 [P4] | concentration up to which completely soluble [1]: ≥ 7.5 μM/L; Tm, reannealing R [2, 5]: 82.4 °C; Tm, reannealing R [2, 8]: 82.5 °C; Tm, reannealing R [2, 12]: 81.1 °C; Tm, reannealing R [2, 14]: 82.1 °C; Tm, melting M [2, 15]: 82.0 °C; Tm, reannealing R [2, 15]: 81.6 °C; Tm, melting M [2, 16]: 81.5 °C; Tm, reannealing R [2, 16]: 81.1 °C |
| 80.6 °C | 80.4 °C | 80.6 °C | 80.3 °C | 81.5 °C | 81.1 °C | 80.4 °C | 81.1 °C | 81.0 °C | 81.0 °C | 81.1 °C | 80.4 °C | 82.0 °C | 81.0 °C | 81.5 °C | 80.5 °C | 80.5 °C | 81.5 °C | 81.5 °C | 82.1 °C | H-ATA-TAT-TGG-CTG-ATC-CAA-TAT-AT-KK-NH2 [PNAD, reference compound] | Tm, reannealing R [2, 8]: 81.4 °C; Tm, reannealing R [2, 12]: 81.0 °C; Tm, reannealing R [2, 14]: 80.6 °C; Tm, melting M [2, 15]: 80.5 °C; Tm, reannealing R [2, 15]: 80.5 °C; Tm, melting M [2, 16]: 81.5 °C; Tm, reannealing R [2, 16]: 81.1 °C; cooperativity of sigmoidal melting transition (normalized absorbance vs. temperature) [2]: least cooperative sigmoidal transition |
| 82.1 °C | 82.3 °C | 81.6 °C | 81.3 °C | 82.1 °C | 81.6 °C | 81.3 °C | 82.1 °C | 81.5 °C | 82.5 °C | 82.1 °C | 81.4 °C | 82.1 °C | 81.5 °C | 82.0 °C | 82.0 °C | 82.0 °C | 82.5 °C | 81.1 °C | 84.0 °C | H-OEE-ATA-TAT-TGG-CTG-ATC-CAA-TAT-AT-EEK-NH2 [P4N] | Tm, reannealing R [2, 5]: 82.3 °C; Tm, reannealing R [2, 14]: 81.6 °C; Tm, melting M [2, 15]: 82.0 °C; Tm, reannealing R [2, 15]: 81.1 °C; Tm, melting M [2, 16]: 82.0 °C; Tm, reannealing R [2, 16]: 80.1 °C; cooperativity of sigmoidal melting transition (normalized absorbance vs. temperature) [2]: only a slightly less cooperative a transition as compared with probe P3N |
| 83.1 °C | 82.9 °C | 83.1 °C | 82.4 °C | 83.1 °C | 83.1 °C | 81.9 °C | 82.5 °C | 82.4 °C | 83.5 °C | 83.0 °C | 82.5 °C | 83.0 °C | 82.4 °C | 83.5 °C | 83.0 °C | 83.0 °C | 83.0 °C | 82.5 °C | 83.5 °C | H-OEE-ATA-TAT-TGG-OO-CCA-ATA-TAT-EEK-NH2 [P3N] | Tm, reannealing R [2, 5]: 81.4 °C; Tm, reannealing R [2, 8]: 82.9 °C; Tm, reannealing R [2, 12]: 83.1 °C; Tm, reannealing R [2, 14]: 83.1 °C; Tm, melting M [2, 15]: 83.0 °C; Tm, reannealing R [2, 15]: 82.6 °C; Tm, melting M [2, 16]: 83.0 °C; Tm, reannealing R [2, 16]: 82.6 °C; cooperativity of sigmoidal melting transition (normalized absorbance vs. temperature) [2]: most cooperative sigmoidal transition |
